From article PMC3726668, “A Characterization of the Manduca sexta Serotonin Receptors in the Context of Olfactory Neuromodulation” (PLoS ONE, 2013)

Columns and labels:
Format in all cases: cell-based
Ms5HT2 receptor = molecular target: T1, Ms5HT2 receptor (Manduca sexta, UniProt S4USL2); experiment: two-electrode voltage clamp, Xenopus oocytes, endogenous calcium-dependent chloride current
T1 construct: gene 5HT2

Ms5HT1B receptor [1] = molecular target: T2, Ms5HT1B receptor (Manduca sexta, UniProt Q0GMY1); experiment: as above
T2 construct: gene 5HT1B
T2 sequence (Q0GMY1 1-448): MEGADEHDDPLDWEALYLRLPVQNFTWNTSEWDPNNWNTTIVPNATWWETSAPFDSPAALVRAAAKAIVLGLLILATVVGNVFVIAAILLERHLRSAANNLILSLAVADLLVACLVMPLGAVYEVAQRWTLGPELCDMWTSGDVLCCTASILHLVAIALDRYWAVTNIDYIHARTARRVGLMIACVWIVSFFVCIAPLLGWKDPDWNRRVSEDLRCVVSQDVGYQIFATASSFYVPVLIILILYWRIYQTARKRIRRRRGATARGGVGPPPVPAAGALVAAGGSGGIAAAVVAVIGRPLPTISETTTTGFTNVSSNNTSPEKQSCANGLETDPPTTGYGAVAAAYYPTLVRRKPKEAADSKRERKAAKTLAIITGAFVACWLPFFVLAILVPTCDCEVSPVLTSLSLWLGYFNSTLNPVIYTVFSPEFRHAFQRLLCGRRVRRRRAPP

Ms5HT7 receptor [2] = molecular target: T3, Ms5HT7 receptor (Manduca sexta, UniProt S4UQW2); experiment: as above
T3 construct: gene 5HT7; Xenopus oocytes (pBS-MXT, receptor cRNA alone)
T3 sequence (S4UQW2 38-563): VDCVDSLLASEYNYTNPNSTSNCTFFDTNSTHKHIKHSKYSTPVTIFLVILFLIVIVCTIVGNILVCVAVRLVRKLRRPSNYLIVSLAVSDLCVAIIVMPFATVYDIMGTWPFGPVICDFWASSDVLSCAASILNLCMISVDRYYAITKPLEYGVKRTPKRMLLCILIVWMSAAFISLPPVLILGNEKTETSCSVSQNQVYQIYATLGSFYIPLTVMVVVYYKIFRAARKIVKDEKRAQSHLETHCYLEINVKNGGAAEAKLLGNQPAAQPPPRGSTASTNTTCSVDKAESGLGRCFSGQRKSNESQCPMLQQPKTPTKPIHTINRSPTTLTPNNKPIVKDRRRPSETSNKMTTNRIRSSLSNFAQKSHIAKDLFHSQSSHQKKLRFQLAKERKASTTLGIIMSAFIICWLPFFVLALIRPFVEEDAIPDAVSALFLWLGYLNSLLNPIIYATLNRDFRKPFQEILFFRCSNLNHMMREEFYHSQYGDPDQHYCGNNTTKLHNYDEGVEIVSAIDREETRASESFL

Ms5HT1B receptor [3] = molecular target: T2, Ms5HT1B receptor; experiment: two-electrode voltage clamp, Xenopus oocytes, endogenous chloride current; conditions: for activity at 3 µM: read-out: 5HT1B receptor
Source text: two-electrode voltage clamp, Xenopus oocytes, endogenous chloride current on Ms5HT1B receptor

Ms5HT1A receptor = molecular target: T4, Ms5HT1A receptor (Manduca sexta, UniProt Q0GMY2); experiment: two-electrode voltage clamp, Xenopus oocytes, CFTR current; conditions: read-out: 5HT1A receptor
T4 construct: gene 5HT1A; about 51 kDa
T4 sequence (Q0GMY2 1-463): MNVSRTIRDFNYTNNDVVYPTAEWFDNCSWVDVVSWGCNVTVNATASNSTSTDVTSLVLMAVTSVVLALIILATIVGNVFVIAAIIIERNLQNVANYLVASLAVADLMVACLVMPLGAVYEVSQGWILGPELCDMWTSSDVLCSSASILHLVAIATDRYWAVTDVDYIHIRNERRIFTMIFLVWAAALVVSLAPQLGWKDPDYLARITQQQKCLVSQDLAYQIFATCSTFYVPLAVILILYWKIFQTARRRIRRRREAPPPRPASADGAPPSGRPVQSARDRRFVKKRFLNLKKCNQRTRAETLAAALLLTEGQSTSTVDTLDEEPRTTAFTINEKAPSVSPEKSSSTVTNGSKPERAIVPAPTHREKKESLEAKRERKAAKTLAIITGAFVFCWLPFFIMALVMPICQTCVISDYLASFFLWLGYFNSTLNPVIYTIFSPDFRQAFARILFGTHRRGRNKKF
Source text: two-electrode voltage clamp, Xenopus oocytes, CFTR current on Ms5HT1A receptor

Ms5HT7 receptor [4] = molecular target: T3, Ms5HT7 receptor; experiment: two-electrode voltage clamp, Xenopus oocytes, endogenous chloride current; conditions: 3 µM; partial agonist; relative to 1 µM 5-HT
Source text: two-electrode voltage clamp, Xenopus oocytes, endogenous chloride current on Ms5HT7 receptor

T1 sequence (S4USL2 1-635): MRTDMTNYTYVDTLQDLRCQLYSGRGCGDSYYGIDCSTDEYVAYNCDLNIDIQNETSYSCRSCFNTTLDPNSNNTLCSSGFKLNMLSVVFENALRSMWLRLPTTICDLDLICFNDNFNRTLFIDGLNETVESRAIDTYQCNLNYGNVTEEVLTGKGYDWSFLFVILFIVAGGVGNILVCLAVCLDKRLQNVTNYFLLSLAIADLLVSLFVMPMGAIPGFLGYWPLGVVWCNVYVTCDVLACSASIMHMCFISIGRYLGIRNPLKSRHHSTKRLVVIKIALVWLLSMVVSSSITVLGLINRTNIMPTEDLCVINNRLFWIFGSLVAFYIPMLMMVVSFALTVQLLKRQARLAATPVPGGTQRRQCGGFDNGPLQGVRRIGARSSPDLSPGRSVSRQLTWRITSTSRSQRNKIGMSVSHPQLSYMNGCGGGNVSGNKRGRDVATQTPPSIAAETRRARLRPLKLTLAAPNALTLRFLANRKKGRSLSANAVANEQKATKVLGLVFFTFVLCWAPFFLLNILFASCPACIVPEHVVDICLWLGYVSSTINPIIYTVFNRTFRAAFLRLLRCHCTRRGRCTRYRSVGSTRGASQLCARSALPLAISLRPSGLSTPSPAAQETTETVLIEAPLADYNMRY

In the case of `NCCc1c[nH]c2ccc(O)cc12` [serotonin], the EC50 (Ms5HT2 receptor) is reported as 25.4 nM, the EC50 (Ms5HT1B receptor [1]) is reported as 57 nM and the EC50 (Ms5HT7 receptor [2]) is reported as 10.5 nM.
With `CSc1ccc2c(c1)C(N1CCN(C)CC1)Cc1ccccc1S2` (centres unmarked) [methiothepin] the activity at 3 µM (Ms5HT1B receptor [3]) was 36.4 ± 12.6%.
In the case of `COc1ccccc1N1CCN(CCN(C(=O)C2CCCCC2)c2ccccn2)CC1` [WAY100635], the activity at 3 µM (Ms5HT1A receptor) is reported as 76.8 ± 15.8% and the activity at 3 µM (Ms5HT1B receptor [3]) is reported as 38.2 ± 3.3%.
In the case of `CC[C@@H](CO)NC(=O)[C@@H]1C=C2c3cccc4c3c(cn4C)C[C@H]2N(C)C1` [methysergide], the Ms5HT7 (Ms5HT7 receptor [4]) is reported as 49.5 ± 12%.
`COc1ccc2[nH]cc(CCN)c2c1` [5-methoxytryptamine] gave a 5HT1B receptor (Ms5HT1B receptor [3]; agonist, relative to 1 µM 5-HT) of 7.2 ± 1.4%.
